Measurements published in patent publication US9428456B2, “1-[m-carboxamido(hetero)aryl-methyl]-heterocyclyl-carboxamide derivatives” (Actelion Pharmaceuticals Ltd., priority 2012, dated 2016).

biological target: CXCR7 (Homo sapiens (Human), UniProt P25106); test: PathHunter CHO-K1 CXCR7 b-arrestin assay (agonistic activity); type: cell-based; conditions: PathHunter CHO-K1 CXCR7 b-arrestin cell line
Description: The CXCl12 receptor and CXCR7 agonistic activities of the compounds of formula (I) are determined in accordance with the following experimental method.
The assay is using the PathHunter™ CHO-K1 CXCR7 b-arrestin cell line from DiscoverX. The system is based on the Enzyme Fragment Complementation Technology. Two complementing fragments of the b-galactosidase enzyme are expressed within stably transfected cells. The larger portion of b-gal, termed EA for Enzyme Acceptor, is fused to the C-terminus of b-arrestin 2. The smaller fragment, termed ProLink™ tag, is fused to CXCR7 at the C-terminus. Upon activation, b-arrestin is recruited which forces the interaction of ProLink and EA, allowing complementation of the two fragments of b-gal and the formation of a functional enzyme which is capable of hydrolysing the substrate and generating a chemiluminescent signal.
CHO-K1 CXCR7 b-arrestin cells are detached from culture dishes with a cell dissociation buffer (Invitrogen, #13151-014) and collected in growing medium (F12 HAMS 90% (v/v)/FCS 10% (v/v), Penicilin/streptomycin 1% (v/v)). 5000 cells per well (in 20 μl) are seeded in a 384 well plate (white-walled, clear bottom; BD Falcon #353274). The plate is incubated at 37° C./5% CO2 for 24 hours. Medium is then replaced by 20 μl OPTIMEM (Invitrogen #31985) for 3 to 4 hours. Test compounds are dissolved at 10 mM in DMSO and serially diluted in DMSO to 200× of the final concentration for dose response curves. Compounds are then diluted 1:33.3 in HBSS1×. 5 μl/well of HBSS1×/20 mM HEPES/0.2% BSA are added to the assay plate followed by addition of 5 μl/well of diluted compounds. CXCL12 (Peprotech #300-28A) may be used as a reference agonist. The plate is incubated for 90 minutes at 37° C. 12 μl of detection reagent (Path Hunter Detection Kit, DiscoveRx, #93-0001) is transferred to the assay plate and to the plate is incubated for 1 hour at room temperature. Luminescent signal is read in a microplate reader (FLUOstar Optima, bmg). The calculated EC50 values may fluctuate depending on the daily cellular assay performance. Fluctuations of this kind are known to those skilled in the art. Average EC50 values from several measurements are given as geometric mean values.

CXCR7, sequence (P25106 whole entry): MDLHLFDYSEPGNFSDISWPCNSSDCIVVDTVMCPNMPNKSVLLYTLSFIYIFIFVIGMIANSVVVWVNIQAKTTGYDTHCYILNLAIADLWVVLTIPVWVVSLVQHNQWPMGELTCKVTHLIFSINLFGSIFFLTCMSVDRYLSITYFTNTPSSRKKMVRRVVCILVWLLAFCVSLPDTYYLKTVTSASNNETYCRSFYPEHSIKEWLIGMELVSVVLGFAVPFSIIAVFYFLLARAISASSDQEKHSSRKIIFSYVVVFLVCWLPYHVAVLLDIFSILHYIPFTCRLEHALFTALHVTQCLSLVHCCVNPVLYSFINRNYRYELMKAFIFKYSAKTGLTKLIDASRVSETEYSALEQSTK
CXCR7, sequence (P32121 whole entry partner): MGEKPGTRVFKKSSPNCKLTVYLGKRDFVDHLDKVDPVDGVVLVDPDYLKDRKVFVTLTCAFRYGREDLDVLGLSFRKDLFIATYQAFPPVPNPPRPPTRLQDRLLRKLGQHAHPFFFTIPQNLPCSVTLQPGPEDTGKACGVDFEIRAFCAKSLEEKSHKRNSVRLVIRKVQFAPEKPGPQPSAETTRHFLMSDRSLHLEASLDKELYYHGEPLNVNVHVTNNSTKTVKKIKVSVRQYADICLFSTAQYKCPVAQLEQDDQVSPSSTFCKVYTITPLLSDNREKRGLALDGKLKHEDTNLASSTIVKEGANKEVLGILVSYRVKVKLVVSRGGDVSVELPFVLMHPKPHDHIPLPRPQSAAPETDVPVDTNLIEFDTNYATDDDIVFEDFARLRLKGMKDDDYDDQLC

Row | Compound | EC50 [nM]
1 | 1-[3-(4-Chloro-benzoylamino)-benzyl]-piperidine-4-carboxylic acid (1-cyano-cyclopropyl)-amide [Example 2.036] | 15
2 | 1-[3-(4-Chloro-benzoylamino)-benzyl]-piperidine-4-carboxylic acid (tetrahydro-pyran-4-yl)-amide [Example 2.013] | 13
3 | 6-Trifluoromethyl-pyridine-2-carboxylic acid [3-(4-pentylcarbamoyl-piperidin-1-ylmethyl)-phenyl]-amide [Example 2.080] | 15
4 | O=C(NC1CCCCC1)C1CCN(Cc2cccc(NC(=O)C3CC3c3ccccc3)c2)CC1 (racemic) [Example 1.029] | 5
5 | CC(C)C(C(=O)Nc1cccc(CN2CCC(C(=O)NC3CCCCC3)CC2)c1)c1ccccc1 (racemic) [Example 1.036] | 35
6 | CC(C(=O)Nc1cccc(CN2CCC(C(=O)NC(C)(C)C)CC2)c1)c1ccccc1 (racemic) [Example 1.079] | 3
7 | CC(c1cccc(NC(=O)c2ccc(Cl)cn2)c1)N1CCC(C(=O)NC2CCCCC2)CC1 (racemic) [Example 1.168] | 2
8 | CC(c1cccc(NC(=O)c2ccccn2)c1)N1CCC(C(=O)NC2CCCCC2)CC1 (racemic) [Example 1.169] | 12
9 | CC(c1cccc(NC(=O)c2cnccn2)c1)N1CCC(C(=O)NC2CCCCC2)CC1 (racemic) [Example 1.170] | 18
10 | CC(c1cccc(NC(=O)c2cccnc2)c1)N1CCC(C(=O)NC2CCCCC2)CC1 (racemic) [Example 1.171] | 150
11 | Cc1cncc(C(=O)Nc2cccc(C(C)N3CCC(C(=O)NC4CCCCC4)CC3)c2)c1 (racemic) [Example 1.172] | 28
12 | CC(c1cccc(NC(=O)Cc2cccc(C(F)(F)F)c2)c1)N1CCC(C(=O)NC2CCCCC2)CC1 (racemic) [Example 1.173] | 26
13 | CC(c1cccc(NC(=O)c2ccncc2Cl)c1)N1CCC(C(=O)NC2CCCCC2)CC1 (racemic) [Example 1.174] | 559
14 | COc1ccc(OCC(=O)Nc2cccc(C(C)N3CCC(C(=O)NC4CCCCC4)CC3)c2)cc1 (racemic) [Example 1.175] | 181
15 | CC(c1cccc(NC(=O)c2ccncc2)c1)N1CCC(C(=O)NC2CCCCC2)CC1 (racemic) [Example 1.176] | 173
16 | CC(c1cccc(NC(=O)c2ccc(C(F)(F)F)cc2)c1)N1CCC(C(=O)NC2CCCCC2)CC1 (racemic) [Example 1.177] | 37
17 | CC(c1cccc(NC(=O)c2ccc(C#N)cc2)c1)N1CCC(C(=O)NC2CCCCC2)CC1 (racemic) [Example 1.178] | 64
18 | CC(c1cccc(NC(=O)c2cccc(C#N)c2)c1)N1CCC(C(=O)NC2CCCCC2)CC1 (racemic) [Example 1.179] | 78
19 | CC(c1cccc(NC(=O)c2cc(Cl)ccn2)c1)N1CCC(C(=O)NC2CCCCC2)CC1 (racemic) [Example 1.180] | 51
20 | Cc1ccc(C(=O)Nc2cccc(C(C)N3CCC(C(=O)NC4CCCCC4)CC3)c2)cn1 (racemic) [Example 1.181] | 148
21 | Cc1cccc(C(=O)Nc2cccc(C(C)N3CCC(C(=O)NC4CCCCC4)CC3)c2)n1 (racemic) [Example 1.182] | 7
22 | CC(c1cccc(NC(=O)c2ccc(C(F)(F)F)nc2)c1)N1CCC(C(=O)NC2CCCCC2)CC1 (racemic) [Example 1.183] | 98
23 | Cc1cc(C(=O)Nc2cccc(C(C)N3CCC(C(=O)NC4CCCCC4)CC3)c2)ccn1 (racemic) [Example 1.184] | 33
24 | Cc1cnc(C(=O)Nc2cccc(C(C)N3CCC(C(=O)NC4CCCCC4)CC3)c2)cn1 (racemic) [Example 1.185] | 15
25 | Cc1cc(C(=O)Nc2cccc(C(C)N3CCC(C(=O)NC4CCCCC4)CC3)c2)c2cnn(C(C)C)c2n1 (racemic) [Example 1.186] | 86
26 | CC(c1cccc(NC(=O)c2cccc(C(F)(F)F)n2)c1)N1CCC(C(=O)NC2CCCCC2)CC1 (racemic) [Example 1.187] | 7
27 | CC(c1cccc(NC(=O)c2ccc(N3CCCC3)cn2)c1)N1CCC(C(=O)NC2CCCCC2)CC1 (racemic) [Example 1.188] | 215

Row | Compound | EC50 [nM]
28 | CC(C)Cc1cc(C(=O)Nc2cccc(C(C)N3CCC(C(=O)NC4CCCCC4)CC3)c2)n(C)n1 (racemic) [Example 1.189] | 15
29 | CC(c1cccc(NC(=O)c2cnc3[nH]ccc3c2)c1)N1CCC(C(=O)NC2CCCCC2)CC1 (racemic) [Example 1.190] | 134
30 | Cc1ccnc(C(=O)Nc2cccc(C(C)N3CCC(C(=O)NC4CCCCC4)CC3)c2)c1 (racemic) [Example 1.191] | 64
31 | Cc1cc(C)nc(C(=O)Nc2cccc(C(C)N3CCC(C(=O)NC4CCCCC4)CC3)c2)c1 (racemic) [Example 1.192] | 102
32 | CC(c1cccc(NC(=O)c2ccncn2)c1)N1CCC(C(=O)NC2CCCCC2)CC1 (racemic) [Example 1.193] | 23
33 | CC(c1cccc(NC(=O)c2cnc(N3CCCC3)s2)c1)N1CCC(C(=O)NC2CCCCC2)CC1 (racemic) [Example 1.194] | 303
34 | CC(c1cccc(NC(=O)c2ncccn2)c1)N1CCC(C(=O)NC2CCCCC2)CC1 (racemic) [Example 1.195] | 176
35 | CCN(CC)c1ccc(C(=O)Nc2cccc(C(C)N3CCC(C(=O)NC4CCCCC4)CC3)c2)cn1 (racemic) [Example 1.196] | 491
36 | Cc1cc(C(=O)Nc2cccc(C(C)N3CCC(C(=O)NC4CCCCC4)CC3)c2)ncn1 (racemic) [Example 1.198] | 92
37 | CC(C)(C)NC(=O)C1CCN(Cc2cccc(NC(=O)C3CCOC3)c2)CC1 (racemic) [Example 1.256] | 222
38 | CC(C)(C)NC(=O)C1CCN(Cc2cccc(NC(=O)C3CC3(C)C)c2)CC1 (racemic) [Example 1.257] | 7
39 | CC(C)(C)NC(=O)C1CCN(Cc2cccc(NC(=O)C3CNc4ccccc43)c2)CC1 (racemic) [Example 1.265] | 15
40 | CC(C)(C)NC(=O)C1CCN(Cc2cccc(NC(=O)C3COc4ccccc43)c2)CC1 (racemic) [Example 1.266] | 6
41 | CC(C)(C)NC(=O)C1CCN(Cc2cccc(NC(=O)C3CCc4ccccc43)c2)CC1 (racemic) [Example 1.267] | 2
42 | CC(C)(C)NC(=O)C1CCN(Cc2cccc(NC(=O)C(O)c3ccccc3Cl)c2)CC1 (racemic) [Example 1.270] | 6
43 | CC(C)(C)NC(=O)C1CCN(Cc2cccc(NC(=O)C3Cc4ccccc43)c2)CC1 (racemic) [Example 1.271] | 1
44 | CCNC(=O)C1CCCN(Cc2cccc(NC(=O)c3cncc(C)c3)c2)CC1 (racemic) [Example 1.287] | 181
45 | CCC(C)NC(=O)C1CCCN(Cc2cccc(NC(=O)c3cncc(C)c3)c2)CC1 (racemic) [Example 1.288] | 33
46 | Cc1cncc(C(=O)Nc2cccc(CN3CCCC(C(=O)NC(C)C)CC3)c2)c1 (racemic) [Example 1.289] | 113
47 | Cc1cncc(C(=O)Nc2cccc(CN3CCCC(C(=O)NC(C)(C)C)CC3)c2)c1 (racemic) [Example 1.290] | 49
48 | Cc1cncc(C(=O)Nc2cccc(CN3CCCC(C(=O)NC4CCCCC4)CC3)c2)c1 (racemic) [Example 1.291] | 134
49 | CCC(c1cccc(NC(=O)c2cncc(C)c2)c1)N1CCC(C(=O)NC2CCCCC2)CC1 (racemic) [Example 1.307] | 350
50 | CCC(c1cccc(NC(=O)c2cccc(C(F)(F)F)n2)c1)N1CCC(C(=O)NC2CCCCC2)CC1 (racemic) [Example 1.308] | 87
51 | Cc1cncc(C(=O)Nc2cccc(CN3CCC(C(=O)NC(C)(C)C)C3)c2)c1 (racemic) [Example 2.096, rac-N-[3-(3-tert-Butylcarbamoyl-pyrrolidin-1-ylmethyl)-phenyl]-5-methyl-nicotinamide] | 28
52 | CC(C)(C)NC(=O)C1CCN(Cc2cccc(NC(=O)Cc3ccc(F)cc3Cl)c2)C1 (racemic) [Example 2.097, rac-1-{3-[2-(2-Chloro-4-fluoro-phenyl)-acetylamino]-benzyl}-pyrrolidine-3-carboxylic acid tert-butylamide] | 37
53 | CC(C)CNC(=O)C1CCN(Cc2cccc(NC(=O)c3cccc(C(F)(F)F)n3)c2)C1 (racemic) [Example 2.098, rac-6-Trifluoromethyl-pyridine-2-carboxylic acid [3-(3-isobutylcarbamoyl-pyrrolidin-1-ylmethyl)-phenyl]-amide] | 193
